Data taken from patent publication US10399931B2, “Octahydroanthracene compound, preparation method and application thereof” (SHANDONG XINHUA PHARMACEUTICAL CO., LTD., priority 2016, dated 2019).

Experiments:
microglia = assay: Phagocytosis of β-amyloid protein by microglia in APP/PS1 mice; type: in vivo
Method: • 4.3.1. Immersing the paraffin sections in xylene to dewax for 15 min, and 2 times in total; then immersing in gradient alcohols with a gradient of 100%, 100%, 95%, 90%, 85% and 75%, each for 5 min. • 4.3.2. Microwave antigen retrieval: immersing the sections in 0.01 M citrate buffer (pH 6.0), heating to boiling in a microwave oven, and repeating twice; after natural cooling, washing 2 times with PBS for 5 min each time. • 4.3.3. Blocking endogenous peroxidase: blotting around the brain tissue with filter paper, outlining the brain tissue with a PAP pen. Adding dropwise the peroxidase blocker, incubating for 10 min at room temperature, and washing 3 times with PBS for 5 min each time. • 4.3.4. Adding dropwise normal serum blocking solution diluted with 0.01M PBS at a ratio of 1:10, standing at room temperature for 20 min, shaking off the excess liquid and not washing. • 4.3.5. Adding dropwise the primary antibody diluted with 0.01 M PBS, keeping at 4° C. overnight; washing 3 times with 0.01 M PBS for 2 min each time. • 4.3.6. […] Sealing with water-soluble sealant; observing by fluorescence microscopy. […] Washing 3 times with the PBS on a shaker in a dark for 3 min each time; sealing with the water-soluble sealant, and observing by fluorescence microscope. […]

APP/PS1 transgenic mice = assay: Morris water maze test (oriented navigation and probe test); type: in vivo; conditions: for Number of times traversing the safe platform vs model group / Percentage of the swimming distance in the target quadrant vs model group / Swimming time in the target quadrant vs model group: probe test
Method: The drugs were administered three days after the adaptive feeding. Peanut oil was used as the solvent. The drug was intragastric administered once a day for 15 days. On the 6th to 9th day after the administration, the new object identification test was performed. On the 10th day, the Y-maze test was performed. On the 11th to 15th day, the Morris water maze test was performed to determine the improvement of learning and memory. The administration of the drugs was continued during the behavioral experiment until the animals were sacrificed (16th day).
The experimental device includes a black circular pool with a diameter of 100 cm and a height of 40 cm, and a white platform (safe platform) having a diameter of about 10 cm. The location of the safe platform could be moved. Morris Water Maze Video Detection and Analysis System was provided by the Institute of Materia Medica, China Academy of Medical Sciences. One day before the experiment, water was injected into the black circular pool (water temperature 22±1° C.), and white pigment was added to mix uniformly. The water surface was usually about 1 cm higher than the top of the safe platform. The pool was divided into four quadrants I, II, III and IV, and the safe platform was usually placed in the middle of the quadrant IV. The experiment was divided into two parts: (1) Oriented navigation: the animal grouping was input into a computer software in advance. The position of the safe platform was kept unchanged during the experiment. During the test, the experimental animal facing the pool wall was placed in the water from different inlets, and the computer simultaneously collected data and recorded the time to find the safe platform (escape latency). Data collection automatically stopped when the animal stayed on the safe platform for 10 s. The data acquisition time of the mouse was 60 s. If the animal could not find the safe platform within the specified time, the escape latency was recorded as 60 s. At the same time, the operator induced the animal to reach the safe platform and stay for 10 s. The animal was trained twice a day for 4 consecutive days. (2) Probe test: after the oriented navigation test is completed, the safe platform is removed and the animal was placed in the pool free to explore for 60 s. The camera system automatically recorded the time and distance of the experimental animal swimming in the quadrant of the safe platform within the specified time and the number of times passing through the location of the safe platform.

[1] = test system: APP/PS1 double transgenic AD model mice; assay: Pathology of hippocampal CA1 neurons in APP/PS1 mice; type: in vivo
tau protein = assay: Tau protein phosphorylation; parameters: species or system mice; conditions: mouse, in vivo

## CC1(C)CCC(C)(C)c2c1cc1c(c2NC(=O)c2ccc(NC(=O)NCCN)cc2)C(C)(C)CCC1(C)C [OAB-14, 1-(2-amino) ethyl-3-{4-[(1,1,4,4,5,5,8,8-octamethyl-1,2,3,4,5,6,7,8-octahydro-9-anthryl)carbamoyl]phenyl} urea]
microglia
  Phagocytosis of microglia in the central nervous system to β-amyloid protein: promoting the phagocytosis
APP/PS1 transgenic mice; 100 mg/kg, fourth day of training
  Total swimming distance vs model group: significantly reduced
APP/PS1 transgenic mice; 100 mg/kg, third and fourth days of training
  Escape latency vs model group: significantly reduced
APP/PS1 transgenic mice; 200 mg/kg, from the second day of training
  Escape latency vs model group: significant decrease
APP/PS1 transgenic mice; 200 mg/kg, from the third day of training
  Total swimming distance vs model group: significant decrease
APP/PS1 transgenic mice; 100 mg/kg
  Number of times traversing the safe platform vs model group: significantly increased
  Percentage of the swimming distance in the target quadrant vs model group: significantly increased
  Swimming time in the target quadrant vs model group: significantly increased
APP/PS1 transgenic mice; 200 mg/kg
  Number of times traversing the safe platform vs model group: significantly increased
  Percentage of the swimming distance in the target quadrant vs model group: significantly increased
  Swimming time in the target quadrant vs model group: significantly increased
APP/PS1 transgenic mice; water maze oriented navigation, overall
  Spatial learning and memory disorders of the APP/PS1 mice: significantly improved
[1]; 100 mg/kg group
  Morphology of hippocampal CA1 neurons: closely arranged, no visible edema and nuclear pyknosis
[1]; 200 mg/kg group
  Morphology of hippocampal CA1 neurons: closely arranged, no visible edema and nuclear pyknosis
Tau protein
  Tau protein phosphorylation: reducing the tau protein phosphorylation
